# Results published in patent US5770575A, “Nipecotic acid derivatives as antithrombotic compounds” (Ortho Pharmaceutical Corporation, priority 1995, dated 1998).
# Experiments:
# GPIIb/IIIa = molecular target: T1, GPIIb/IIIa (Homo sapiens, UniProt P05106+P08514); assay: In vitro solid phase purified glycoprotein IIb/IIIa binding assay (biotinylated fibrinogen); settings: for IC50: Table I; for inhibition at 50 µM: read-out: Binding (column Binding IC50), % @ 50 μM
# T1 sequence (P08514 32-887 limits assumed): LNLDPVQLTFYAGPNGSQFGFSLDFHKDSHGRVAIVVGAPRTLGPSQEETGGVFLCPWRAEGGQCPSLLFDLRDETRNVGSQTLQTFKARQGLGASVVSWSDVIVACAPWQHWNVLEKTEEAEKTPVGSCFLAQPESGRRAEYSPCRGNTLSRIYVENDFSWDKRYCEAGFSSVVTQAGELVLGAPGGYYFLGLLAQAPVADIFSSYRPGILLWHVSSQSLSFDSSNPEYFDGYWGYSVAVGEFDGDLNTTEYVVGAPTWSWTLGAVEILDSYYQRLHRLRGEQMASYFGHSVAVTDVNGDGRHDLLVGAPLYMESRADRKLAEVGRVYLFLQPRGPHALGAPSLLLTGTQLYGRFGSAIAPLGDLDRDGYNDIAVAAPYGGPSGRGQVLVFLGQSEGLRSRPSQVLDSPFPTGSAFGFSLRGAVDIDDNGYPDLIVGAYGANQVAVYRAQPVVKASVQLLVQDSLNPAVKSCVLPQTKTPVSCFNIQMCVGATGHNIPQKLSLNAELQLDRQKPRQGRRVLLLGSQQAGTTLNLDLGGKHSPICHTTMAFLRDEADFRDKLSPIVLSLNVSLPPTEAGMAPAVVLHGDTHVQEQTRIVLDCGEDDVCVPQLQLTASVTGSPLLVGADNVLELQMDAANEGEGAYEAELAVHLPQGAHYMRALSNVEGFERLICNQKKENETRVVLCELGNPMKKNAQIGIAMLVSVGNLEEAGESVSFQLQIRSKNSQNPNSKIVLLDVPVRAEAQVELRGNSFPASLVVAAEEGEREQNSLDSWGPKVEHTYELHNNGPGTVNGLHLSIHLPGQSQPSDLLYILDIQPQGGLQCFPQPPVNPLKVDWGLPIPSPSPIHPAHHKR
# T1 sequence (P05106 27-788): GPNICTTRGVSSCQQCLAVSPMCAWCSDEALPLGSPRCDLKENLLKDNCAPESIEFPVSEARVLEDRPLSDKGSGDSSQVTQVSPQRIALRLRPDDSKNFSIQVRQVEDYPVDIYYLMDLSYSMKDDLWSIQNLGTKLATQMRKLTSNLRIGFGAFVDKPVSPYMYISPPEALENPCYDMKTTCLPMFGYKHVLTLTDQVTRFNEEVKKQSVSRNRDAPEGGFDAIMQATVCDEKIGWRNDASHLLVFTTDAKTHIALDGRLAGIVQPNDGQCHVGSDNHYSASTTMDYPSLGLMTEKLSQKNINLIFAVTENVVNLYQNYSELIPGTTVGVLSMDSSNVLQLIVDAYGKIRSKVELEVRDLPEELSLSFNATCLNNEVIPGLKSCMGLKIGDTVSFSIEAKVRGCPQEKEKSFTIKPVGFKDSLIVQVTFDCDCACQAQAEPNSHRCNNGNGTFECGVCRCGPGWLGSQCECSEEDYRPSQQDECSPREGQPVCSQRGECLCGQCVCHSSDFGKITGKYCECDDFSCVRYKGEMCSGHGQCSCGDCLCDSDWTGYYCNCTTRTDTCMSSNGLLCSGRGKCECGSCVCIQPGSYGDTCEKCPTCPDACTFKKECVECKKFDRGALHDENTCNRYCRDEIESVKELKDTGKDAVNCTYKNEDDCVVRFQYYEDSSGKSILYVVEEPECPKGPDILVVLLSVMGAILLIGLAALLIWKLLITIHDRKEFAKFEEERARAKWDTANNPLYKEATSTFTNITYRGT
# Source text: The compounds of the present invention interrupt binding of fibrinogen to platelet glycoprotein IIb/IIIa (GPIIb/IIIa) and thereby inhibit platelet aggregation. […] Because the final, common pathway in normal platelet aggregation is the binding of fibrinogen to activated, exposed GPIIb/IIIa, inhibition of this binding represents a plausible antithrombotic approach. The receptor is activated by stimuli such as ADP, collagen, and thrombin, exposing binding domains to two different peptide regions of fibrinogen: α-chain Arg-Gly-Asp (RGD) and γ-chain 400-411.
# IN VITRO SOLID PHASE PURIFIED GLYCOPROTEIN IIB/IIIA BINDING ASSAY.
# The plate is covered and incubated overnight at 4° C. The GPIIb/IIa solution is discarded and 150 μl of 5% BSA is added and incubated at RT for 1-3 h. The plate is washed extensively with modified Tyrodes buffer. Biotinylated fibrinogen (25 μl/well) at 2× final concentration is added to the wells that contain the test compounds (25 μl/well) at 2× final concentration. The plate is covered and incubated at RT for 2-4 h. Twenty minutes prior to incubation completion, one drop of Reagent A (Vecta Stain ABC Horse Radish Peroxidase kit, Vector Laboratories, Inc.) and one drop Reagent B are added with mixing to 5 mL modified Tyrodes buffer mix and let stand. The ligand solution is discarded and the plate washed (5×200 μl/well) with modified Tyrodes buffer. Vecta Stain HRP-Biotin-Avidin reagent (50 μl/well, as prepared above) is added and incubated at RT for 15 min. The Vecta Stain solution is discarded and the wells washed (5×200 μl/well) with modified Tyrodes buffer. […] The absorbance is read at 490 nm.
# gel-filtered platelets = assay: In vitro inhibition of thrombin-induced gel-filtered platelet aggregation assay; type: cell-based; settings: *Indicates IC50, read-out: Pl. Aggr. IC50
# Procedure: IN VITRO INHIBITION OF THROMBIN-INDUCED GEL-FILTERED PLATELET AGGREGATION ASSAY.
# The percentage of platelet aggregation is calculated as an increase in light transmission of compound treated platelet concentrate vs. control treated platelet concentrate. Blood is obtained from drug free, normal donors into tubes containing 0.13M sodium citrate. Platelet rich plasma (PRP) is collected by centrifugation of whole blood at 200×g for 10 min at 25° C. The PRP (5 mL) is gel filtered through Sepharose 2B (bed volume 50 mL), and the platelet count is adjusted to 2×10^7platelets per sample. The following constituents are added to a siliconized cuvette: concentrated platelet filtrate and Tyrode's buffer (0.1 4M NaCl, 0.0027M KCl, 0.01 2M NaHCO3, 0.76 mM Na2 HPO4, 0.0055M glucose, 2 mg/mL BSA and 5.0 mM HEPES @ pH 7.4) in an amount equal to 350 μl, 50 μl of 20 mM calcium and 50 μl of the test compound. Aggregation is monitored in a BIODATA aggregometerforthe 3 min following the addition of agonist (thrombin 50 μl of 1 unit/mL).
# occlusive thrombus = assay: In vivo dog study: thrombus formation in extracorporeal arteriovenous shunt; design: species or system mongrel dogs; settings: for Thrombus Weight: mean ± SEM
# Procedure: Compound 16 was tested in the following in vivo dog model to determine its therapeutic efficacy
# (§1) Adult mongrel dogs of either sex 9-13 kg) were anesthetized with pentobarbital sodium (35 mg/kg, i.v.) and ventilated with room air via an endotracheal tube (12 strokes/min, 25 ml/kg). For arterial pressure determination, the left carotid artery was cannulated with a saline-filledpolyethylene catheter (PE-200) and connected to a Statham pressure transducer (P231D, Oxnard, Calif.). Mean arterial diastolic blood pressure. Heart rate was monitored using a cardiotachometer (Biotach, Gould
# (§2) Electronics, Cleveland, Ohio) triggered from a lead 11 electrocardiogram generated by limb leads. A jugular vein was cannulated (PE-200) for drug administration. The left femoral artery and the left femoral vein were cannulated with silicon treated (Sigmacote, Sigma Chemical Co., St. Louis, Mo.), saline filled polyethylene tubing (PE-200) and connected with a 5 cm section of silicon treated tubing (PE-240) to form an extracorporeal arteriovenous shunt (A-V). Shunt patency was monitored using a Doppler flow system (model VF-1, Crystal Biotech Inc., Hopkinton, Mass.) and proximal to the locus of the shunt. All parameters were monitored continuously on a polygraph recorder (Gould TA-4000, Oxnard Calif.) at a paper speed of 10 mm/min.
# (§3) On completion of a 15 min post surgical stabilization period, an occlusive thrombus was formed by the introduction of a thrombogenic surface (O braided silk thread, 5 cm in length, Ethicon Inc., Somerville, N.J.) into the shunt. Four consecutive 15 min shunt periods were employed with the first consisting of a vehicle infusion followed by increasing concentrations of Compound 16, SC-47643, saline with DMF or saline with citric acid administered as a bolus followed by an infusion beginning 5 min. before insertion of the thrombogenic surface and continued for an additional 15 min. AT the end of each 15 min shunt period the silk was carefully removed and weighed. A fifth shunt immediately following the total cumulative treatment dose was used to assess patency duration as indicated by time to total occlusion. Thrombus weight was calculated by subtracting the weight of the silk prior to placement from the total weight of the silk on removal from the shunt. Arterial blood was withdrawn prior to the first shunt and after each shunt period for determination of whole blood collagen-induced platelet aggregation, thrombin-induced platelet degranulation (platelet ATP release), prothrombin time and platelet count. Template bleeding time was performed beginning 10 min. into each shunt period.
# (§4) Compound 16;1+0.03, 3+0.1 and 5+0.3 mg/kg, i.v. (bolus)+mg/kg/hr,i.v. (infusion) was solubilized in saline+DMF (5%) and serially diluted to achieve appropriate concentrations expressed as parent compound.
# (§5) All values are expressed as the mean and standard error of the mean. Statistical significance of the change was assessed based on change from baseline suing analysis of variance and Student's t-test. Differences were considered significant when P<0.05.
# platelet aggregation = assay: In vivo dog study: gamma thrombin- and collagen-induced platelet aggregation; design: species or system mongrel dogs; settings: mean ± SEM
# Procedure: as §1, §2, §3
# Whole blood platelet aggregation and ATP release were measured using a lumi-aggregation and ATP release were measured using a lumi-aggregometer (Chrono-log, Havertown, Pa.) by recording the change in impedance (platelet aggregation) and light transmission (ATP-release) through a stirred (1000 rpm) suspension of whole blood maintained at 37 C.
# as §4, §5
compound,measurement,setting,value
"CC(C)(C)OC(=O)N[C@@H](CCCCNC(=O)OCc1ccccc1)C(=O)N1CCCC(C(=O)NCCC(=O)OCc2ccccc2)C1 (stereo partly drawn) [Compound 1, Nα-Boc-L-Lys(Cbz)-Nip-Ala-OBn]",IC50,GPIIb/IIIa,20100 nM
"CC(C)(C)OC(=O)N[C@@H](CCCCN)C(=O)N1CCCC(C(=O)NCCC(=O)O)C1 (stereo partly drawn) [Compound 2, Nα-Boc-L-Lys-Nip-γ-Ala--OH]",IC50,GPIIb/IIIa,740 nM
"CC(C)(C)OC(=O)N[C@H](CCCCN)C(=O)N1CCCC(C(=O)NCCC(=O)O)C1 (stereo partly drawn) [Compound 3, Nα-Boc-D-Lys-Nip-γ-Ala--OH]",IC50,GPIIb/IIIa,21 nM
same,IC50,gel-filtered platelets,600 nM
"NCCCC[C@H](N)C(=O)N1CCCC(C(=O)NCCC(=O)O)C1 (stereo partly drawn) [Compound 4, H-L-Lys-Nip-γ-Ala-OH]",IC50,GPIIb/IIIa,2600 nM
"NCCCCCC(=O)N1CCCC(C(=O)NCCC(=O)O)C1 (stereo not drawn) [Compound 5, N-(Nε- nocaroyl)-Nip-β-Ala-OH]",IC50,GPIIb/IIIa,13 nM
same,IC50,gel-filtered platelets,1600 nM
"CC(=O)N[C@@H](CCCCN)C(=O)N1CCCC(C(=O)NCC(=O)O)C1 (stereo partly drawn) [Compound 6, Nα-Ac-L-Lys-Nip-Gly-OH]",inhibition at 50 µM,GPIIb/IIIa,24%
"CC(=O)N[C@@H](CCCCN)C(=O)N1CCCC(C(=O)NCCC(=O)O)C1 (stereo partly drawn) [Compound 7, Nα-Ac-L-Lys-Nip-β-Ala-OH]",IC50,GPIIb/IIIa,74 nM
"CC(C)(C)OC(=O)N[C@@H](CCCCN)C(=O)N1CCCC(C(=O)NCCCC(=O)O)C1 (stereo partly drawn) [Compound 9, Nα-Boc-L-Lys-Nip-γ-aminobutyric acid]",inhibition at 50 µM,GPIIb/IIIa,59%
"NCCCC[C@@H](N)C(=O)N1CCCC(C(=O)NCCC(=O)O)C1 (stereo partly drawn) [Compound 10, H-D-Lys-Nip-β-Ala-OH]",IC50,GPIIb/IIIa,760 nM
"CC(=O)N[C@H](CCCCN)C(=O)N1CCCC(C(=O)NCCC(=O)O)C1 (stereo partly drawn) [Compound 13, Nα-Ac-D s-Nip-β-Ala-OH]",IC50,GPIIb/IIIa,340 nM
"CC(C)NCCCC[C@H](NC(=O)OC(C)(C)C)C(=O)N1CCCC(C(=O)NCCC(=O)O)C1 (stereo partly drawn) [Compound 15, Nα-Boc-L-Lys(i-Pr)-Nip-β-Ala-OH]",inhibition at 5 µM,"GPIIb/IIIa; read-out: Binding (column Binding IC50), % @ 5 μM",20%
"CC(C)(C)OC(=O)N[C@H](CCCCN)C(=O)N1CCC[C@@H](C(=O)NCCC(=O)O)C1 [Compound 16, Nα-Boc-D-Lys-R-(-)-Nip-β-Ala-OH]",Incidence of occlusive thrombus formation (animals per group),"occlusive thrombus; Period 2, Dose 1 (1+0.03 mg/kg iv bolus + mg/kg/hr infusion)",2/4
same,Incidence of occlusive thrombus formation (animals per group),"occlusive thrombus; Period 3, Dose 2 (3+0.1)",1/4
same,Incidence of occlusive thrombus formation (animals per group),"occlusive thrombus; Period 4, Dose 3 (5+0.3)",0/4
same,Incidence of occlusive thrombus formation (animals per group),"occlusive thrombus; Post Treatment, monitored for 60 min",3/4
same,Thrombus Weight,occlusive thrombus; Shunt 2 - Dose 1 (1+0.03),52 ± 3 mg
same,Thrombus Weight,"occlusive thrombus; Shunt 3 - Dose 2 (3+0.1), *P < 0.05",27 ± 1 mg
same,Thrombus Weight,"occlusive thrombus; Shunt 4 - Dose 3 (5+0.3), *P < 0.05",19 ± 2 mg
same,Collagen-Induced Plat Agg (% inhib),platelet aggregation; 2-Dose 1 (1+0.03),14 ± 3 % inhib
same,G-Thrombin-Induced Plat Agg (% inhib),platelet aggregation; 2-Dose 1 (1+0.03),8 ± 5 % inhib
same,Collagen-Induced Plat Agg (% inhib),"platelet aggregation; 3-Dose 2 (3+0.1), *P < 0.05",99 ± 1 % inhib
same,G-Thrombin-Induced Plat Agg (% inhib),"platelet aggregation; 3-Dose 2 (3+0.1), *P < 0.05",34 ± 8 % inhib
same,Collagen-Induced Plat Agg (% inhib),"platelet aggregation; 4-Dose 3 (5+0.3), *P < 0.05",100 ± 0 % inhib
same,G-Thrombin-Induced Plat Agg (% inhib),"platelet aggregation; 4-Dose 3 (5+0.3), *P < 0.05",72 ± 8 % inhib
same,G-Thrombin-Induced Plat Agg (% inhib),platelet aggregation; 30 min post,21 ± 8 % inhib
same,Collagen-Induced Plat Agg (% inhib),"platelet aggregation; 30 min post, *P < 0.05",82 ± 13 % inhib
same,G-Thrombin-Induced Plat Agg (% inhib),platelet aggregation; 60 min post,11 ± 5 % inhib
same,Collagen-Induced Plat Agg (% inhib),"platelet aggregation; 60 min post, *P < 0.05",57 ± 14 % inhib
